Test results from patent publication US11771738B2 (Zoetis Services LLC, priority 2018, dated 2023).
Where two headings read alike, the source gives them in different places.

Experiments:
Assay type in all cases: cell-based
D. immitis L4 larvae = test: Dirofilaria immitis, L4 Stage (DiL4) In Vitro Assay; conditions: for minimal effective concentration: Dirofilaria immitis, 72 h, read-out: DiL4 MED, Minimum Effective Dose, D. immitis L4 larvae motility, in vitro; for DiMf/DiL4: larval stage selectivity, ratio of DiMf MED to DiL4 MED
[1] = system: microfilariae of Dirofilaria immitis; test: Dirofilaria immitis, Microfilaria (DiMf) In Vitro Assay; conditions: Dirofilaria immitis, 72 h, read-out: DiMf MED, Minimum Effective Dose, D. immitis microfilariae motility, in vitro
[2] = system: third stage larvae of Haemonchus contortus; test: Haemonchus contortus, Larvae Stage 3 (HcL3) In Vitro Assay; conditions: Haemonchus contortus, 96 h
[3] = read-out: HcL3 MED, Minimum Effective Dose, H. contortus third stage larvae, approximately 96 hours
[4] = read-out: HcL3 MED, Haemonchus contortus third stage larvae in vitro, class mark appended to the Ex # in Table 3
[5] = read-out: HcL3 MED, approximately 96 hours incubation, multiple-resistant field isolate

Row | Structure (SMILES) | minimal effective concentration (D. immitis L4 larvae) [µM] | DiMf/DiL4 (D. immitis L4 larvae) | minimal effective concentration [1] [µM] | minimal effective concentration [2, 3] [µM] | minimal effective concentration [2, 4] [µM] | minimal effective concentration [2, 5] [µM] | minimal effective concentration ([2]; read-out: HcL3 MED (symbol after Ex#), approximately 96 hours incubation, multiple-resistant field isolate) [µM]
1 | COc1ncc(Cc2ccc(C[C@H]3OC(=O)[C@H](CC(C)C)N(C)C(=O)[C@@H](C)OC(=O)[C@H](CC(C)C)N(C)C(=O)[C@@H](Cc4ccc(Cc5cnc(OC)c(F)c5)cc4)OC(=O)[C@H](CC(C)C)N(C)C(=O)[C@@H](C)OC(=O)[C@H](CC(C)C)N(C)C3=O)cc2)cc1F [Example 3-118, (3S,6R,9S,12R,15S,18R,21S,24R)-6,18-bis(4-((5-fluoro-6-methoxypyridin-3-yl)methyl)benzyl)-3,9,15,21-tetraisobutyl-4,10,12,16,22,24-hexamethyl-1,7,13,19-tetraoxa-4,10,16,22-tetraazacyclotetracosan-2,5,8,11,14,17,20,23-octaone] | 0.001 | 100 | 0.1 | > 100 | – | – | –
2 | CCc1ncncc1Cc1ccc(C[C@H]2OC(=O)[C@H](CC(C)C)N(C)C(=O)[C@@H](C)OC(=O)[C@H](CC(C)C)N(C)C(=O)[C@@H](Cc3ccc(Cc4cncnc4CC)cc3)OC(=O)[C@H](CC(C)C)N(C)C(=O)[C@@H](C)OC(=O)[C@H](CC(C)C)N(C)C2=O)cc1 [Example 3-310, (3S,6R,9S,12R,15S,18R,21S,24R)-6,18-bis(4-((4-ethylpyrimidin-5-yl)methyl)benzyl)-3,9,15,21-tetraisobutyl-4,10,12,16,22,24-hexamethyl-1,7,13,19-tetraoxa-4,10,16,22-tetraazacyclotetracosan-2,5,8,11,14,17,20,23-octaone] | 0.001 | 0.3 | 0.0003 | 1 | < 1 | ≤ 1 | –
3 | COc1ncccc1Cc1ccc(C[C@H]2OC(=O)[C@H](CC(C)C)N(C)C(=O)[C@@H](C)OC(=O)[C@H](CC(C)C)N(C)C(=O)[C@@H](Cc3ccc(Cc4cccnc4OC)cc3)OC(=O)[C@H](CC(C)C)N(C)C(=O)[C@@H](C)OC(=O)[C@H](CC(C)C)N(C)C2=O)cc1 [Example 3-31, (3S,6R,9S,12R,15S,18R,21S,24R)-3,9,15,21-tetraisobutyl-6,18-bis(4-((2-methoxypyridin-3-yl)methyl)benzyl)-4,10,12,16,22,24-hexamethyl-1,7,13,19-tetraoxa-4,10,16,22-tetraazacyclotetracosan-2,5,8,11,14,17,20,23-octaone] | 0.0002 | 25 | 0.005 | 2.4 | 1 to 3.3 | – | –
4 | CC(C)C[C@H]1C(=O)O[C@H](Cc2ccc(Cc3ncco3)cc2)C(=O)N(C)[C@@H](CC(C)C)C(=O)O[C@H](C)C(=O)N(C)[C@@H](CC(C)C)C(=O)O[C@H](Cc2ccc(Cc3ncco3)cc2)C(=O)N(C)[C@@H](CC(C)C)C(=O)O[C@H](C)C(=O)N1C [Example 3-18, (3S,6R,9S,12R,15S,18R,21S,24R)-3,9,15,21-tetraisobutyl-4,6,10,16,18,22-hexamethyl-12,24-bis(4-(oxazol-2-ylmethyl)benzyl)-1,7,13,19-tetraoxa-4,10,16,22-tetraazacyclotetracosan-2,5,8,11,14,17,20,23-octaone] | 0.0001 | 2 | 0.0002 | 1 | < 1 | ≤ 1 | –
5 | CC(C)C[C@H]1C(=O)O[C@H](Cc2ccc(Cc3coc(C#N)c3)cc2)C(=O)N(C)[C@@H](CC(C)C)C(=O)O[C@H](C)C(=O)N(C)[C@@H](CC(C)C)C(=O)O[C@H](Cc2ccc(Cc3coc(C#N)c3)cc2)C(=O)N(C)[C@@H](CC(C)C)C(=O)O[C@H](C)C(=O)N1C [Example 3-60, 4,4′-(((((2R,5S,8R,11 S,14R,17S,20R,23S)-5,11,17,23-tetraisobutyl-4,8,10,16,20,22-hexamethyl-3,6,9,12,15,18,21,24-octaoxo-1,7,13,19-tetraoxa-4,10,16,22-tetraazacyclotetracosane-2,14-diyl)bis(methylene))bis(4,1-phenylene))bis(methylene))bis(furan-2-carbonitrile)] | 0.001 | 50 | 0.05 | > 10 | – | – | –
6 | CC(C)C[C@H]1C(=O)O[C@H](Cc2ccc(Cc3cnco3)cc2)C(=O)N(C)[C@@H](CC(C)C)C(=O)O[C@H](C)C(=O)N(C)[C@@H](CC(C)C)C(=O)O[C@H](Cc2ccc(Cc3cnco3)cc2)C(=O)N(C)[C@@H](CC(C)C)C(=O)O[C@H](C)C(=O)N1C [Example 3-148, (3S,6R,9S,12R,15S,18R,21S,24R)-3,9,15,21-tetraisobutyl-4,6,10,16,18,22-hexamethyl-12,24-bis(4-(oxazol-5-ylmethyl)benzyl)-1,7,13,19-tetraoxa-4,10,16,22-tetraazacyclotetracosan-2,5,8,11,14,17,20,23-octaone] | 0.0003 | 3.3 | 0.001 | 3 | 1 to 3.3 | – | –
7 | Cc1c[nH]c(C)c1Cc1ccc(C[C@H]2OC(=O)[C@H](CC(C)C)N(C)C(=O)[C@@H](C)OC(=O)[C@H](CC(C)C)N(C)C(=O)[C@@H](Cc3ccccc3)OC(=O)[C@H](CC(C)C)N(C)C(=O)[C@@H](C)OC(=O)[C@H](CC(C)C)N(C)C2=O)cc1 [Example 4-19, (3S,6R,9S,12R,15S,18R,21S,24R)-6-benzyl-18-(4-((2,4-dimethyl-1H-pyrrol-3-yl)methyl)benzyl)-3,9,15,21-tetraisobutyl-4,10,12,16,22,24-hexamethyl-1,7,13,19-tetraoxa-4,10,16,22-tetraazacyclotetracosan-2,5,8,11,14,17,20,23-octaone] | 0.001 | 100 | 0.1 | > 10 | – | – | –
8 | CC(C)C[C@H]1C(=O)O[C@H](Cc2ccc(Cc3cnccc3C(F)F)cc2)C(=O)N(C)[C@@H](CC(C)C)C(=O)O[C@H](C)C(=O)N(C)[C@@H](CC(C)C)C(=O)O[C@H](Cc2ccc(Cc3cnccc3C(F)F)cc2)C(=O)N(C)[C@@H](CC(C)C)C(=O)O[C@H](C)C(=O)N1C [Example 3-295, (3S,6R,9S,12R,15S,18R,21S,24R)-6,18-bis(4-((4-(difluoromethyl)pyridin-3-yl)methyl)benzyl)-3,9,15,21-tetraisobutyl-4,10,12,16,22,24-hexamethyl-1,7,13,19-tetraoxa-4,10,16,22-tetraazacyclotetracosan-2,5,8,11,14,17,20,23-octaone] | 0.0003 | 16.7 | 0.005 | 1.8 | 1 to 3.3 | – | –
9 | CSc1ncccc1Cc1ccc(C[C@H]2OC(=O)[C@H](CC(C)C)N(C)C(=O)[C@@H](C)OC(=O)[C@H](CC(C)C)N(C)C(=O)[C@@H](Cc3ccc(Cc4cccnc4SC)cc3)OC(=O)[C@H](CC(C)C)N(C)C(=O)[C@@H](C)OC(=O)[C@H](CC(C)C)N(C)C2=O)cc1 [Example 3-308, (3S,6R,9S,12R,15S,18R,21S,24R)-3,9,15,21-tetraisobutyl-4,6,10,16,18,22-hexamethyl-12,24-bis(4-((2-(methylthio)pyridin-3-yl)methyl)benzyl)-1,7,13,19-tetraoxa-4,10,16,22-tetraazacyclotetracosan-2,5,8,11,14,17,20,23-octaone] | 0.001 | 10 | 0.01 | 3.3 | 1 to 3.3 | – | –
10 | Cc1ccncc1Cc1ccc(C[C@H]2OC(=O)[C@H](CC(C)C)N(C)C(=O)[C@@H](C)OC(=O)[C@H](CC(C)C)N(C)C(=O)[C@@H](Cc3ccc(Cc4cnccc4C)cc3)OC(=O)[C@H](CC(C)C)N(C)C(=O)[C@@H](C)OC(=O)[C@H](CC(C)C)N(C)C2=O)cc1 [Example 3-223, (3S,6R,9S,12R,15S,18R,21S,24R)-3,9,15,21-tetraisobutyl-4,6,10,16,18,22-hexamethyl-12,24-bis(4-((4-methylpyridin-3-yl)methyl)benzyl)-1,7,13,19-tetraoxa-4,10,16,22-tetraazacyclotetracosan-2,5,8,11,14,17,20,23-octaone] | 0.0007 | 7.1 | 0.005 | 5.7 | – | – | –
11 | COC(c1ccc(C[C@H]2OC(=O)[C@H](CC(C)C)N(C)C(=O)[C@@H](C)OC(=O)[C@H](CC(C)C)N(C)C(=O)[C@@H](Cc3ccccc3)OC(=O)[C@H](CC(C)C)N(C)C(=O)[C@@H](C)OC(=O)[C@H](CC(C)C)N(C)C2=O)cc1)c1ccc(F)c(F)c1 (stereo partly drawn) [Example 2-37, (3S,6R,9S,12R,15S,18R,21S,24R)-6-benzyl-18-(4-((3,4-difluorophenyl)(methoxy)methyl)benzyl)-3,9,15,21-tetraisobutyl-4,10,12,16,22,24-hexamethyl-1,7,13,19-tetraoxa-4,10,16,22-tetraazacyclotetracosan-2,5,8,11,14,17,20,23-octaone] | 0.001 | 20 | 0.02 | 3.3 | – | – | 1 to 3.3
12 | COc1ccccc1Cc1ccc(C[C@H]2OC(=O)[C@H](CC(C)C)N(C)C(=O)[C@@H](C)OC(=O)[C@H](CC(C)C)N(C)C(=O)[C@@H](Cc3ccc(Cc4ccccc4OC)cc3)OC(=O)[C@H](CC(C)C)N(C)C(=O)[C@@H](C)OC(=O)[C@H](CC(C)C)N(C)C2=O)cc1 [Example 1-11, (3S,6R,9S,12R,15S,18R,21S,24R)-3,9,15,21-tetraisobutyl-6,18-bis(4-(2-methoxybenzyl)benzyl)-4,10,12,16,22,24-hexamethyl-1,7,13,19-tetraoxa-4,10,16,22-tetraazacyclotetracosan-2,5,8,11,14,17,20,23-octaone] | 0.001 | 300 | 0.3 | > 10 | – | – | –
